We go through three compounds from patent publication US6818638B2, “Melvinolin derivatives” (Novartis AG, priority 1999, dated 2004).

The target in experiment [1] is T1, human LFA-1 / human ICAM-1 (Homo sapiens, UniProt P20701).
T1 construct: endogenous in cells; ICAM-1-Cκ: made in house in the baculovirus system
The experiment is described as follows: Cell free assay: binding of soluble human ICAM-1 to immobilized human LFA-1. The note with it: cell free assay Ai); read-out: IC50, inhibition of adhesion of LFA-1 to ICAM-1. As for the experimental part: The assay measures the binding of soluble human ICAM-1 to Immobilized human LFA-1 is purified from JY cells, a human lymphoblastoid B cell-line, by immunoaffinity chromatography as described by Dustin et al. (J. Immunol. 148, 2654-2663, 1992). ICAM-1 mouse Cκ fusion protein (ICAM-1) is produced using the baculovirus system as described by Weitz-Schmidt et al. (Anal. Biochem.238,184-190, 1996).
Purified LFA-1 is diluted 1:20 in phosphate buffered saline (PBS) containing 2 mM MgCl2, pH 7.4 and coated onto microtitre plates (Nunc) at 37° C. for 3h. Plates are blocked with 1% heat-treated BSA in PBS for 2 hours at 37° C. followed by a washing step using PBS, 2 mM MgCl2, 1% fetal calf serum, pH 7.4 (assay buffer). Compounds dissolved at 10 mM in DMSO are diluted in assay buffer and added to the plates. Biotinylated recombinant ICAM-1 in assay buffer (6 μg/ml) is added and allowed to bind at 37° C. for one hour. After incubation, wells are washed with assay buffer. Streptavidin-peroxidase diluted 1:5000 in assay buffer is added and incubated for 45 min at 37° C. Plates are then washed with assay buffer and 2.2′-azino-bis(3-ethylbenzothiazoline-6 sulfonic acid) diammonium salt substrate solution is added to each well. The reaction is stopped after 20 min and bound ICAM-1 is determined by measuring the optical density at 405 nm in a microplate reader.
In this assay, compounds of formula I inhibit adhesion of LFA-1 to ICAM-1 with an IC50≦30 μM, preferably 0.05 to 30 μM.

Experiment [2] concerns oxazolone-induced allergic contact dermatitis. Description: Allergic Contact Dermatitis (ACD), oxazolone-sensitized mice. The format is in vivo. As to the method:
Groups of oxazolone-sensitized mice are challenged with 10 μl of 0.2 or 2.0% oxazolone on the inner surface of the right to eliciate ACD. The low concentration of oxazolone is used for testing compounds on systemic activity whereas the high concentration is applied for topical testing. The unchallenged left ears serve as normal controls and dermatitis is evaluated from the individual differences in pinnal weight, which is taken as a measure of increase in inflammatory swelling 24 h after the challenge. Dermatitis is evaluated in test- and for comparison in control groups. The test groups are treated with the test compounds either orally (twice, 2 h and immediately before challenge), subcutaneously (immediately before challenge) or topically (30 min after challenge at the site of elicitation of the ACD); the controls are treated similarly with the vehicles alone. For oral and subcutaneous administration the compounds are administered in an oil in water emulsion, for topical administration the compounds are prepared in a mixture of ethanol, acetone and dimethylacetamide. The data of the test- and the vehicle-treated control groups are statistically analysed by ANOVA followed by Dunnet T-test (normal distribution or data) or by H and U-test, respectively. […]

The subject of experiment [3] is thioglycollate induced neutrophil migration. The experiment is described as follows: Murine Thioglycollate Induced Peritonitis. The format is in vivo, mice. The note with it: Mus musculus, Neutrophil, po; p.o.; neutrophils in peritoneal lavage after 4 hours; read-out: ED50 in test Bi).
Experiment [4] deals with Peripheral blood mononuclear cells (PBMC). The experiment is described as follows: Human Mixed Lymphocyte Reaction (MLR). In kind it is cell-based. The note with it: 2-way reactions, six days, 3H-thymidine, read-out: IC50, 50% inhibition of cell proliferation in MLR. As for the experimental part:
Peripheral blood mononuclear cells (PBMC) are isolated from human buffy coats. In each experiment, PBMC from three different donors (A, B, and C) are set up in three individual 2-way reactions (A-B, A-C, B-C). Cells are cocultured for six days and proliferation is determined by pulsing the cells with ^3H-thymidine. The concentration of compounds of formula I which results in 50% inhibition of cell proliferation (IC50) is calculated.

T1 sequence (P20701 26-1170): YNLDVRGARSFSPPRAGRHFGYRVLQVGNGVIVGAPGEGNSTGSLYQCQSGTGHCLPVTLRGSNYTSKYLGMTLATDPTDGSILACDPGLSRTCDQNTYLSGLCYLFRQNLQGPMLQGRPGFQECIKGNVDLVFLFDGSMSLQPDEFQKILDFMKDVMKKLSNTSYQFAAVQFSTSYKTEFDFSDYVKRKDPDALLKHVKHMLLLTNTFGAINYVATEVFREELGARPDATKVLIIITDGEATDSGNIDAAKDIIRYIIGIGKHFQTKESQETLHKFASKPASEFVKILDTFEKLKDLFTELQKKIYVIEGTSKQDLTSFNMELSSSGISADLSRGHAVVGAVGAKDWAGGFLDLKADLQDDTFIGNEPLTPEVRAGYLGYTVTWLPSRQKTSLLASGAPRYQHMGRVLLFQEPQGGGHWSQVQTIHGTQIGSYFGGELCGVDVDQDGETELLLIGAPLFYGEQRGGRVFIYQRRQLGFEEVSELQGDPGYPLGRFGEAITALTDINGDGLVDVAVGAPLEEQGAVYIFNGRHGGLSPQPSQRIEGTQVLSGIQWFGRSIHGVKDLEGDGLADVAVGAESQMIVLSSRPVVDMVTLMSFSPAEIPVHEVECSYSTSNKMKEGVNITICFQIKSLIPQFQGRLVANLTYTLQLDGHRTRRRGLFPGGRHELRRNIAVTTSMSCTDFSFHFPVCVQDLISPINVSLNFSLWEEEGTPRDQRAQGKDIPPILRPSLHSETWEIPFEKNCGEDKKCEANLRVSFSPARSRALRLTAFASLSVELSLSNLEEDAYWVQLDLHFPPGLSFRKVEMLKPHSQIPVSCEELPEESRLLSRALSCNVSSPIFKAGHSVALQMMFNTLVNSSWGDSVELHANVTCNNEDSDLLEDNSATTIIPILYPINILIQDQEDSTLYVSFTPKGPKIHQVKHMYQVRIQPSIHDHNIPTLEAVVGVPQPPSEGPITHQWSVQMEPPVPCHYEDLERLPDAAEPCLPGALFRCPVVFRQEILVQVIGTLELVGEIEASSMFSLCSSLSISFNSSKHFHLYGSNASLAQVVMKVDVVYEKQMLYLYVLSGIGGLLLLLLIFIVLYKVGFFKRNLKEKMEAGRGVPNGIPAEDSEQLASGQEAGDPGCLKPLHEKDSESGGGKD
T1 sequence (P05107 23-769 partner): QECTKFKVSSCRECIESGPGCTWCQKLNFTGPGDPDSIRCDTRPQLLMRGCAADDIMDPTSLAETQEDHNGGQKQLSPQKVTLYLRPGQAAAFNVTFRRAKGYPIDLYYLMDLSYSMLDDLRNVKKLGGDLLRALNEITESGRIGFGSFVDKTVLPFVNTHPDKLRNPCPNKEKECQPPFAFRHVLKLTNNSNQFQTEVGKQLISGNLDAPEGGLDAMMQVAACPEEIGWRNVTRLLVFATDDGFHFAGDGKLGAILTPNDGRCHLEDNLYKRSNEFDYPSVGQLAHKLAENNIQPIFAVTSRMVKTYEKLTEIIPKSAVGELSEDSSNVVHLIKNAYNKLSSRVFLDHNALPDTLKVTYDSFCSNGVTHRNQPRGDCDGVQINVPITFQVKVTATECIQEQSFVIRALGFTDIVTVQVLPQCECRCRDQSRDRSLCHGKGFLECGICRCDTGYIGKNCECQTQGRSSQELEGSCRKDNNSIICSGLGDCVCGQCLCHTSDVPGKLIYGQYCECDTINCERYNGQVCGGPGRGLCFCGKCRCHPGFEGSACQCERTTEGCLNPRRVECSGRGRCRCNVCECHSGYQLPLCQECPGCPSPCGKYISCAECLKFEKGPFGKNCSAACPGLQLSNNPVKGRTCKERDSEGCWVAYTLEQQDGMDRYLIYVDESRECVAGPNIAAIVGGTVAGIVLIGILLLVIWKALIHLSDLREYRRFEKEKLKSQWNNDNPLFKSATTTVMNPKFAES

In the case of `CC[C@H](C)C(=O)O[C@H]1C[C@@H](C)C[C@@H]2CC[C@H](C)[C@H](CC[C@@H](O)C[C@@H](O)CC(=O)NCc3ccc(OC)c(OC)c3)[C@H]21` [compound 28, (S)-2-Methyl-butyric acid (S)-(3S,4aS,7S,8S,8aS)-8-[(3R,5)6-(3,4-dimethoxy-benzylcarbamoyl)-3,5-dihydroxy-hexyl]-3,7-dimethyl-decahydro-naphthalen-1-yl ester], the IC50 in experiment [1] was determined as 790 nM.

As to `CC[C@H](C)C(=O)O[C@H]1C[C@@H](C)C=C2C=C[C@H](C)[C@H](CC[C@@H]3C[C@H](CC(=O)NC)N(Cc4ccc(O)c(OC)c4)C(=O)O3)[C@H]21` [Ex. 2], in experiment [2] (p.o. at a dose of 2×3 mg/kg), the “inhibiting effect in ACD” value is given as 41%. Further, in experiment [3], the ED50 was 0.1 µg/kg. In addition, the results for the IC50 in experiment [4] and in experiment [1] were 200 nM and 50 nM, respectively.

Regarding `CC[C@H](C)C(=O)O[C@H]1C[C@@H](C)C=C2C=C[C@H](C)[C@H](CC[C@H]3C[C@@H](O)CC(=O)N3Cc3ccc4c(CO)c(OC)ccc4c3)[C@H]21` [Ex. 34, (S)2-Methyl-butyric acid (1S,3R,7S,8S,8aR)-8-{2-[(2S,4R)4-hydroxy-1-(5-hydroxymethyl-6-methoxy-naphthalen-2-ylmethyl)-6-oxo-piperidin-2-yl]-ethyl}-3,7-dimethyl-1,2,3,7,8,8a-hexahydro-naphthalen-1-yl ester], in experiment [2] (2x 1 mg/kg p.o.), the “inhibition of inflammatory swelling in ACD” value is 41%. Besides, the IC50 in experiment [1] is 190 nM.
